Reference: patent US11433052B2, “5-LOX and COX-2 inhibition for treatment in connection with blood-brain barrier dysfunction” (University of Kentucky Research Foundation, priority 2019, dated 2022)

Experiments:
[1] = tested on: isolated rat brain capillaries; assay: Texas Red leakage assay, glutamate-mediated capillary leakage; format: cell-based; conditions: 100 μM glutamate with 100 μM LCF
Description: (§1) With reference to FIGS. 1A-1C, the effect of dual LOX-COX inhibition on glutamate-mediated capillary leakage was tested. Isolated rat brain capillaries were exposed to 100 μM glutamate with or without 100 μM of the dual LOX/COX inhibitor, licofelone (LCF).

MMP-2 = assay: Western blot of MMP-2 protein expression in capillaries exposed to glutamate; format: cell-based; conditions: isolated rat brain capillaries, 100 μM glutamate with 100 μM LCF
Description: as §1, with “(LCF). […] FIG. 1A includes Western blots showing MMP-2 and MMP-9 protein expression in isolated rat brain capillaries exposed to 100 μM glutamate with or without LCF. β-Actin was used as protein loading control.” for “(LCF).”

MMP-9 = assay: Western blot of MMP-9 protein expression in capillaries exposed to glutamate; format: cell-based; conditions: isolated rat brain capillaries, 100 μM glutamate with 100 μM LCF
Description: as §1, with “(LCF). […] FIG. 1A includes Western blots showing MMP-2 and MMP-9 protein expression in isolated rat brain capillaries exposed to 100 μM glutamate with or without LCF. β-Actin was used as protein loading control.” for “(LCF).”

MMP = MMP activity in isolated capillaries exposed to glutamate; format: cell-based, rat; conditions: 100 μM glutamate with 100 μM LCF
Description: as §1, with “(LCF). […] FIG. 1B is a bar graph illustrating MMP activity assessed in isolated capillaries exposed to 100 μM glutamate with or without LCF.” for “(LCF).”

[2] = tested on: brain capillaries from pilocarpine-induced status epilepticus (SE) rats; assay: Texas Red leakage from capillary lumens, seizure-mediated capillary leakage in SE rats; format: in vivo, rat; conditions: 10 mg/kg LCF i.p., 7 injections; capillaries isolated 2 d after SE-induction with pilocarpine
Description: With reference to FIGS. 2A and 2B, the effect of dual LOX-COX inhibition on seizure-mediated capillary leakage was tested. Rats were treated with 10 mg/kg LCF (i.p., 7 injections). Capillaries were isolated 2 d after status epilepticus (SE)-induction with pilocarpine. Texas Red (TR) leakage from capillary lumens was monitored by confocal microscopy. Mannitol served as a positive control for barrier opening. (Hartz et al., 2012). Data includes mean±SEM (n=10 capillaries); arbitrary units (0-255). B) S100β ELISA (Millipore). Statistics: ***p<0.001 (ANOVA). […] With reference to FIGS. 4A and 4B, the effect of a combination of a LOX inhibitor and a COX inhibitor on seizure-mediated capillary leakage was tested. Rats were treated with zileuton (ZLT) and celecoxib (CEL) (5 mg/kg and 10 mg/kg; i.p., 7 injections). Capillaries were isolated 2 d after SE-induction with pilocarpine. Texas Red (TR) leakage from capillary lumens monitored by confocal microscopy (mannitol: positive control for barrier opening; Hartz et al., 2012). Data: mean±SEM (n=10 capillaries); arbitrary units (0-255).

S100β = assay: Serum S100β ELISA in SE rats; format: in vivo, rat; conditions: 7 injections, 2 d after SE-induction with pilocarpine
Description: With reference to FIGS. 2A and 2B, the effect of dual LOX-COX inhibition on seizure-mediated capillary leakage was tested. Rats were treated with 10 mg/kg LCF (i.p., 7 injections). Capillaries were isolated 2 d after status epilepticus (SE)-induction with pilocarpine. Serum levels of S100β were assessed by ELISA (Millipore). Statistics: ***p<0.001 (ANOVA). Data: mean±SEM. […] The effect of dual LOX-COX inhibition on seizure-mediated capillary leakage was further tested in rates treated with either 5 mg/kg or 10 mg/kg LCF (i.p., 7 injections). Capillaries were isolated 2 d after SE-induction with pilocarpine. Serum levels of S100β were assessed by ELISA (Millipore). […] With reference to FIGS. 4A and 4B, the effect of a combination of a LOX inhibitor and a COX inhibitor on seizure-mediated capillary leakage was tested. Rats were treated with zileuton (ZLT) and celecoxib (CEL) (5 mg/kg and 10 mg/kg; i.p., 7 injections). Capillaries were isolated 2 d after SE-induction with pilocarpine. Serum levels of S100β were assessed by ELISA (Millipore). Statistics: ***p<0.001 (ANOVA). Data: mean±SEM.

CC1(C)Cc2c(-c3ccccc3)c(-c3ccc(Cl)cc3)c(CC(=O)O)n2C1 [licofelone]
glutamate-mediated capillary leakage (Texas Red leakage) [1]: reduced glutamate-mediated capillary leakage
glutamate-mediated capillary leakage (Texas Red leakage) ([1]; listed as LCF): glutamate-mediated barrier leakage reduction
MMP-2 protein levels (Western blot) (MMP-2): did not show increased protein levels
MMP-9 protein levels (Western blot) (MMP-9): did not show increased protein levels
MMP activity (MMP): did not show increased activity
capillary leakage in SE rats (Texas Red leakage) [2]: prevents capillary leakage
capillary leakage as reflected by S100β levels in serum from SE rats, dose dependence (S100β; 5 mg/kg or 10 mg/kg LCF i.p.): inhibit capillary leakage in a dose-dependent manner
S100β levels in serum from SE rats (S100β; 10 mg/kg LCF i.p.): reduces S100β levels
